# Source: PMC10042540, “Targeting oncogenic KRasG13C with nucleotide-based covalent inhibitors” (eLife, 2023)
# Assays:
# pS6S235/236 = experiment: Electroporation into HeLa cells, western blot quantification; format: cell-based, human; conditions: for pS6 mean fold change: mean of cell lysates
# Protocol: (§1) HeLa cells were obtained from the American Type Culture Collection (ATCC) and were cultured in DMEM medium (Gibco) supplemented with 10% fetal bovine serum (FBS) (PAN-Biotech) and 1% penicillin/streptomycin (Gibco). Cells were cultured in a humidified incubator at 37 °C in the presence of 5% CO2. The identity of the cells was validated by STR profiling and the cells were tested negative for mycoplasma contamination.
# (§2) Electroporation of full-length KRas constructs (KRasWT, KRasG13C, KRasG13C-edaGDP, KRasG13C:acetyledaGDP and KRasG13C-edaGppCp) was performed based on the protocol described by [Alex et al., 2019] using the Neon Transfection System Kit (Thermo Fisher). For electroporation, 3 million cells per experiment were harvested by trypsinization, washed with PBS, and resuspended in 85 µL of the electroporation buffer R (Thermo Fisher). Increasing amounts of recombinant protein samples for each construct (0, 50, 100, 200 and 300 µg) were diluted 1:1 in buffer R followed by the addition of 30 µL of this protein master mix to the cell suspension. This cellular slurry was loaded into a […] Neon Pipette Tip (Thermo Fisher) and electroporated with 2x35 ms pulses at 1000 V. After electroporation, the cells were washed twice with PBS (15 mL) to remove non-internalized extracellular protein and the cell pellet was resuspended in 2 mL complete growth media. Cells were transferred into six-well tissue culture plates (Sarstedt) and incubated for 24 hr at 37 °C and 5% CO2 in a humidified incubator for recovery before being processed for western blotting analysis.
# (§3) After recovery of the electroporation, cells were washed twice with ice-cold PBS and lysed in 100 µL of phosphatase and protease inhibitor containing RIPA buffer (Cell Signaling Technology). Cells were incubated on ice for 30 min and then harvested by scraping followed by centrifugation at 14,000 rpm for 10 min at 4 °C. Protein concentrations were determined using the Pierce BCA protein assay (Thermo) following the manufacturer’s recommended procedure. Equal amounts of protein (10 µg) were analyzed by SDS-PAGE and transferred to Immobilon-FL PVDF membranes (Merck Millipore) using Pierce 1-step transfer buffer (Thermo) and the Pierce Power Blotter (Thermo). Membranes were washed with ddH2O for 5 min, blocked with OdysseyBlocking Buffer TBS (Li-Cor) for 1 hr at room temperature and then incubated with primary antibodies diluted in OdysseyBlocking Buffer TBS overnight at 4 °C with gentle agitation. KRas (Sigma Aldrich, SAB1404011-100UG), pcRafS338 (CST, 9427), tAkt1 (CST, 2938), pAktS473 (CST, 4060), tErk (CST, 4696), pErkT202/Y204 (CST, 4370), pS6S235/236 (CST, 4858), and β-actin (CST, 4970/Sigma-Aldrich, A5441) antibodies were used to detect the individual proteins. After primary antibody incubation, membranes were washed three times with TBS-T (50 mM Tris, 150 mM NaCl, 0.05% Tween 20, pH 7.4) for 5 min before being incubated with secondary antibodies (anti-mouse IgG (H+L) (DyLight 680 Conjugate) (CST, 5470) / anti-rabbit IgG (H+L) (DyLight 800 4 X PEG Conjugate) (CST, 5151)) diluted in OdysseyBlocking Buffer TBS for 1 hr at room temperature with gentle agitation. After secondary antibody incubation, the membranes were washed three times for 5 min with TBS-T and then scanned using an OdysseyCLx imaging system (Li-Cor). Quantification of protein levels from western blots was performed using Empiria Studio (Li-Cor) (Figure 3B, C, Figure 3—figure supplements 6–9).
# pErkT202/Y204 = experiment: as above; format: cell-based, human; conditions: for pErk mean fold change: mean of cell lysates
# Protocol: as §1, §2, §3
# tAkt1 = experiment: as above; format: cell-based, human; conditions: for tAkt mean fold change: mean of cell lysates
# Protocol: as §1, §2, §3
# pAktS473 = experiment: as above; format: cell-based, human; conditions: for pAkt mean fold change: mean of cell lysates
# Protocol: as §1, §2, §3
# pcRafS338 = experiment: as above; format: cell-based, human; conditions: for pcRaf mean fold change: mean of cell lysates
# Protocol: as §1, §2, §3
# tErk = experiment: as above; format: cell-based, human; conditions: for tErk mean fold change: mean of cell lysates
# Protocol: as §1, §2, §3
# SOS = experiment: Guanine nucleotide-exchange factor assay (mantdGDP fluorescence); format: biochemical; conditions: 5 µM KRas1-169, 10 µM mantdGDP, 0.25 or 0.5 µM SOS
# Protocol: SOS-catalysed nucleotide exchange was monitored at 25 °C in a FluoroMax-3 spectrofluorometer (excitation at 360 nm, emission at 440 nm) in 20 mM HEPES (pH 7.5), 100 mM NaCl, 2 mM MgCl2, and 1 mM TCEP. 5 µM KRas1-169 was mixed with 10 µM mantdGDP and subsequently with different concentrations of SOS (0.25 µM and 0.5 µM) (Figure 3A; Figure 3—figure supplement 1).
# [1] = test system: Ras pathway (pcRaf, pAkt, pErk, pS6); experiment: Electroporation into HeLa cells, western blot of downstream signalling; format: cell-based, human; conditions: electroporation of 50-300 µg protein
# Protocol: as §1, §2
# After recovery of the electroporation, cells were washed twice with ice-cold PBS and lysed in 100 µL of phosphatase and protease inhibitor containing RIPA buffer (Cell Signaling Technology). Cells were incubated on ice for 30 min and then harvested by scraping followed by centrifugation at 14,000 rpm for 10 min at 4 °C. Protein concentrations were determined using the Pierce BCA protein assay (Thermo) following the manufacturer’s recommended procedure. Equal amounts of protein (10 µg) were analyzed by SDS-PAGE and transferred to Immobilon-FL PVDF membranes (Merck Millipore) using Pierce 1-step transfer buffer (Thermo) and the Pierce Power Blotter (Thermo). Membranes were washed with ddH2O for 5 min, blocked with OdysseyBlocking Buffer TBS (Li-Cor) for 1 hr at room temperature and then incubated with primary antibodies diluted in OdysseyBlocking Buffer TBS overnight at 4 °C with gentle agitation. […] Quantification of protein levels from western blots was performed using Empiria Studio (Li-Cor) (Figure 3B, C, Figure 3—figure supplements 6–9).
substance,measurement,setting,value
KRasG13C-edaGppCp: KRasG13C covalently modified with edaGppCp,pS6 fold change,"pS6S235/236; 50 µg, Cell lysate 1",4.20
same,pS6 fold change,"pS6S235/236; 50 µg, Cell lysate 2",2.51
same,pS6 mean fold change,pS6S235/236; 50 µg,3.36
same,pS6 fold change,"pS6S235/236; 100 µg, Cell lysate 1",2.82
same,pS6 fold change,"pS6S235/236; 100 µg, Cell lysate 2",2.81
same,pS6 mean fold change,pS6S235/236; 100 µg,2.82
same,pS6 fold change,"pS6S235/236; 200 µg, Cell lysate 1",3.15
same,pS6 fold change,"pS6S235/236; 200 µg, Cell lysate 2",3.28
same,pS6 mean fold change,pS6S235/236; 200 µg,3.22
same,pS6 fold change,"pS6S235/236; 300 µg, Cell lysate 1",3.41
same,pS6 fold change,"pS6S235/236; 300 µg, Cell lysate 2",3.61
same,pS6 mean fold change,pS6S235/236; 300 µg,3.51
same,pErk fold change,"pErkT202/Y204; 50 µg, Cell lysate 1",4.72
same,pErk fold change,"pErkT202/Y204; 50 µg, Cell lysate 2",5.16
same,pErk mean fold change,pErkT202/Y204; 50 µg,4.94
same,pErk fold change,"pErkT202/Y204; 100 µg, Cell lysate 1",7.88
same,pErk fold change,"pErkT202/Y204; 100 µg, Cell lysate 2",4.30
same,pErk mean fold change,pErkT202/Y204; 100 µg,6.09
same,pErk fold change,"pErkT202/Y204; 200 µg, Cell lysate 1",7.25
same,pErk fold change,"pErkT202/Y204; 200 µg, Cell lysate 2",5.27
same,pErk mean fold change,pErkT202/Y204; 200 µg,6.26
same,pErk fold change,"pErkT202/Y204; 300 µg, Cell lysate 1",7.62
same,pErk fold change,"pErkT202/Y204; 300 µg, Cell lysate 2",5.84
same,pErk mean fold change,pErkT202/Y204; 300 µg,6.73
same,tAkt fold change,"tAkt1; 50 µg, Cell lysate 1",1.35
same,tAkt fold change,"tAkt1; 50 µg, Cell lysate 2",1.53
same,tAkt mean fold change,tAkt1; 50 µg,1.44
same,tAkt fold change,"tAkt1; 100 µg, Cell lysate 1",1.30
same,tAkt fold change,"tAkt1; 100 µg, Cell lysate 2",1.69
same,tAkt mean fold change,tAkt1; 100 µg,1.50
same,tAkt fold change,"tAkt1; 200 µg, Cell lysate 1",1.09
same,tAkt fold change,"tAkt1; 200 µg, Cell lysate 2",1.67
same,tAkt mean fold change,tAkt1; 200 µg,1.38
same,tAkt fold change,"tAkt1; 300 µg, Cell lysate 1",0.94
same,tAkt fold change,"tAkt1; 300 µg, Cell lysate 2",1.47
same,tAkt mean fold change,tAkt1; 300 µg,1.20
same,pAkt fold change,"pAktS473; 50 µg, Cell lysate 1",2.11
same,pAkt fold change,"pAktS473; 50 µg, Cell lysate 2",3.13
same,pAkt mean fold change,pAktS473; 50 µg,2.62
same,pAkt fold change,"pAktS473; 100 µg, Cell lysate 1",4.88
same,pAkt fold change,"pAktS473; 100 µg, Cell lysate 2",6.30
same,pAkt mean fold change,pAktS473; 100 µg,5.59
same,pAkt fold change,"pAktS473; 200 µg, Cell lysate 1",6.55
same,pAkt fold change,"pAktS473; 200 µg, Cell lysate 2",7.78
same,pAkt mean fold change,pAktS473; 200 µg,7.17
same,pAkt fold change,"pAktS473; 300 µg, Cell lysate 1",6.53
same,pAkt fold change,"pAktS473; 300 µg, Cell lysate 2",5.20
same,pAkt mean fold change,pAktS473; 300 µg,5.87
same,pcRaf fold change,"pcRafS338; 50 µg, Cell lysate 1",2.67
same,pcRaf fold change,"pcRafS338; 50 µg, Cell lysate 2",1.69
same,pcRaf mean fold change,pcRafS338; 50 µg,2.18
same,pcRaf fold change,"pcRafS338; 100 µg, Cell lysate 1",2.60
same,pcRaf fold change,"pcRafS338; 100 µg, Cell lysate 2",2.10
same,pcRaf mean fold change,pcRafS338; 100 µg,2.35
same,pcRaf fold change,"pcRafS338; 200 µg, Cell lysate 1",2.93
same,pcRaf fold change,"pcRafS338; 200 µg, Cell lysate 2",3.37
same,pcRaf mean fold change,pcRafS338; 200 µg,3.15
same,pcRaf fold change,"pcRafS338; 300 µg, Cell lysate 1",3.66
same,pcRaf fold change,"pcRafS338; 300 µg, Cell lysate 2",3.19
same,pcRaf mean fold change,pcRafS338; 300 µg,3.43
same,tErk fold change,"tErk; 50 µg, Cell lysate 1",1.12
same,tErk fold change,"tErk; 50 µg, Cell lysate 2",1.11
same,tErk mean fold change,tErk; 50 µg,1.12
same,tErk fold change,"tErk; 100 µg, Cell lysate 1",1.29
same,tErk fold change,"tErk; 100 µg, Cell lysate 2",1.14
same,tErk mean fold change,tErk; 100 µg,1.21
same,tErk fold change,"tErk; 200 µg, Cell lysate 1",1.21
same,tErk fold change,"tErk; 200 µg, Cell lysate 2",1.17
same,tErk mean fold change,tErk; 200 µg,1.19
same,tErk fold change,"tErk; 300 µg, Cell lysate 1",1.69
same,tErk fold change,"tErk; 300 µg, Cell lysate 2",1.50
same,tErk mean fold change,tErk; 300 µg,1.60
same,SOS-catalysed nucleotide exchange,SOS,no SOS-catalysed nucleotide exchange was observed
same,"downstream signalling (pcRaf, pAkt, pErk, pS6)",[1],activation of the Ras pathway comparable to KRasG13C was observed
